pIC50: −log10 of the molar value.
Each molecule was assayed against T1, HCV NS3/4A protease complex, BMS strain (UniProt P27958, C1454S/C1711G, species not given) (assay: FRET peptide assay to monitor HCV NS3/4A proteolytic activity (BMS strain)). Conditions: read-out: IC50 Range; HCV NS3/4A enzyme assay; class symbols.
T1 construct: other: HCV NS3/4A enzyme assay; class symbols; numeric values; fused on or other part: three-lysine solubilising tail at the C-terminus of NS4A; purified on Ni-NTA from the pET21b vector (His tag implied)
Format: biochemical, HCV genotype 1a
Source text: HCV NS3 protease complexes, derived from the BMS strain, H77 strain or J4L6S strain, were generated, as described below. These purified recombinant proteins were generated for use in a homogeneous assay (see below) to provide an indication of how effective compounds of the present disclosure would be in inhibiting HCV NS3 proteolytic activity.
Serum from an HCV-infected patient was obtained from Dr. T. Wright, San Francisco Hospital. An engineered full-length cDNA (compliment deoxyribonucleic acid) template of the HCV genome (BMS strain) was constructed from DNA fragments obtained by reverse transcription-PCR (RT-PCR) of serum RNA (ribonucleic acid) and using primers selected on the basis of homology between other genotype 1a strains. From the determination of the entire genome sequence, a genotype 1a was assigned to the HCV isolate according to the classification of Simmonds et al. (See P Simmonds, K A Rose, S Graham, S W Chan, F McOmish, B C Dow, E A Follett, P L Yap and H Marsden, J. Clin. Microbiol., 31(6), 1493-1503 (1993)). […] The infectious clones, H77 (1a genotype) and J4L6S (1b genotype) were obtained from R. Purcell (NIH) and the sequences are published in Genbank (AAB67036, see Yanagi, M., Purcell, R. H., Emerson, S. U. and Buldi, J. Proc. Natl. Acad. Sci. U.S.A. 94(16),8738-8743 (1997); AF054247, see Yanagi, M., St Claire, M., Shapiro, M., Emerson, S. U., Purcell, R. H. and Bukh, J, Virology 244 (1), 161-172. (1998)).
NS3/4A protease complex-containing fractions were pooled and loaded on a desalting column Superdex-S200 pre-equilibrated with buffer D (25 mM HEPES, pH 7.5, 20% glycerol, 300 mM NaCl, 0.2% TritonX-100, 10 mM βMB). Sample was loaded at a flow rate of 1 mL/min. NS3/4A protease complex-containing fractions were pooled and concentrated to approximately 0.5 mg/ml. The purity of the NS3/4A protease complexes, derived from the BMS, H77 and J4L6S strains, were judged to be greater than 90% by SDS-PAGE and mass spectrometry analyses. The enzyme was stored at −80° C., thawed on ice and diluted prior to use in assay buffer.
The purpose of this in vitro assay was to measure the inhibition of HCV NS3 protease complexes, derived from the BMS strain, H77 strain or J4L6S strain, as described above, by compounds of the present disclosure. This assay provides an indication of how effective compounds of the present disclosure would be in inhibiting HCV NS3 proteolytic activity.
In order to monitor HCV NS3/4A protease activity, an NS3/4A peptide substrate was used. The substrate was RET S1 (Resonance Energy Transfer Depsipeptide Substrate; AnaSpec, Inc. cat #22991)(FRET peptide), described by Taliani et al. in Anal. Biochem. 240(2):60-67 (1996). The sequence of this peptide is loosely based on the NS4A/NS4B natural cleavage site for the HCV NS3 protease except there is an ester linkage rather than an amide bond at the cleavage site. The peptide also contains a fluorescence donor, EDANS, near one end of the peptide and an acceptor, DABCYL, near the other end. The fluorescence of the peptide is quenched by […] resonance energy transfer (RET) between the donor and the acceptor, but as the NS3 protease cleaves the peptide the products are released from RET quenching and the fluorescence of the donor becomes apparent.
The peptide substrate was incubated with one of the three recombinant NS3/4A protease complexes, in the absence or presence of a compound of the present disclosure. The inhibitory effects of a compound were determined by monitoring the formation of fluorescent reaction product in real time using a Cytofluor Series 4000.
Assay buffer: 50 mM HEPES, pH 7.5; 0.15 M NaCl; 0.1% Triton; 15% Glycerol; 10 mM βME. Substrate: 2 μM final concentration (from a 2 mM stock solution in DMSO stored at −20° C.). HCV NS3/4A protease type 1a (1b), 2-3 nM final concentration (from a 5 μM stock solution in 25 mM HEPES, pH 7.5, 20% glycerol, 300 mM NaCl, 0.2% Triton-X100, 10 mM βME). […]

| SMILES | pIC50 |
| --- | --- |
| C=C[C@@H]1C[C@]1(NC(=O)[C@@H]1C[C@@H](Oc2ncc(OC)c3ccc(Cl)cc23)CN1C(=O)[C@@H](Nc1nc(-c2ccc(O)cc2)cs1)C(C)(C)C)C(=O)NS(=O)(=O)C1CC1 [Example 60] | 7.70 to 9.00 |
| C=C[C@@H]1C[C@]1(NC(=O)[C@@H]1C[C@@H](Oc2ncc(OC)c3ccc(Cl)cc23)CN1C(=O)[C@@H](Nc1nc(-c2cc(F)ccc2F)cs1)C(C)(C)C)C(=O)NS(=O)(=O)C1CC1 [Example 61] | 7.70 to 9.00 |
| C=C[C@@H]1C[C@]1(NC(=O)[C@@H]1C[C@@H](Oc2ncc(OC)c3ccc(Cl)cc23)CN1C(=O)[C@@H](Nc1nc(-c2cc3cc(Cl)ccc3o2)cs1)C(C)(C)C)C(=O)NS(=O)(=O)C1CC1 [Example 62] | 7.70 to 9.00 |
| C=C[C@@H]1C[C@]1(NC(=O)[C@@H]1C[C@@H](Oc2ncc(OC)c3ccc(Cl)cc23)CN1C(=O)[C@@H](Nc1nc(-c2ccc(C)c(C)c2)cs1)C(C)(C)C)C(=O)NS(=O)(=O)C1CC1 [Example 63] | 7.70 to 9.00 |
| C=C[C@@H]1C[C@]1(NC(=O)[C@@H]1C[C@@H](Oc2ncc(OC)c3ccc(Cl)cc23)CN1C(=O)[C@@H](Nc1nc(-c2ccc(OC)c(F)c2)cs1)C(C)(C)C)C(=O)NS(=O)(=O)C1CC1 [Example 64] | 7.70 to 9.00 |
| C=C[C@@H]1C[C@]1(NC(=O)[C@@H]1C[C@@H](Oc2ncc(OC)c3ccc(Cl)cc23)CN1C(=O)[C@@H](Nc1nc(-c2ccc(OCC)cc2)cs1)C(C)(C)C)C(=O)NS(=O)(=O)C1CC1 [Example 65] | 7.70 to 9.00 |
| C=C[C@@H]1C[C@]1(NC(=O)[C@@H]1C[C@@H](Oc2ncc(OC)c3ccc(Cl)cc23)CN1C(=O)[C@@H](Nc1nc(-c2cc(F)cc(F)c2)cs1)C(C)(C)C)C(=O)NS(=O)(=O)C1CC1 [Example 66] | 7.70 to 9.00 |
| C=C[C@@H]1C[C@]1(NC(=O)[C@@H]1C[C@@H](Oc2ncc(OC)c3ccc(Cl)cc23)CN1C(=O)[C@@H](Nc1nc(-c2ccccc2OC(F)(F)F)cs1)C(C)(C)C)C(=O)NS(=O)(=O)C1CC1 [Example 67] | 6.70 to 7.70 |
| C=C[C@@H]1C[C@]1(NC(=O)[C@@H]1C[C@@H](Oc2ncc(OC)c3ccc(Cl)cc23)CN1C(=O)[C@@H](Nc1nc(-c2cc(C(F)(F)F)ccc2Cl)cs1)C(C)(C)C)C(=O)NS(=O)(=O)C1CC1 [Example 69] | 7.70 to 9.00 |
| C=C[C@@H]1C[C@]1(NC(=O)[C@@H]1C[C@@H](Oc2ncc(OC)c3ccc(Cl)cc23)CN1C(=O)[C@@H](Nc1nc(-c2c(F)cccc2C(F)(F)F)cs1)C(C)(C)C)C(=O)NS(=O)(=O)C1CC1 [Example 71] | 6.70 to 7.70 |
| C=C[C@@H]1C[C@]1(NC(=O)[C@@H]1C[C@@H](Oc2ncc(OC)c3ccc(Cl)cc23)CN1C(=O)[C@@H](Nc1nc(-c2cccc(C(F)(F)F)c2F)cs1)C(C)(C)C)C(=O)NS(=O)(=O)C1CC1 [Example 72] | 7.70 to 9.00 |
| C=C[C@@H]1C[C@]1(NC(=O)[C@@H]1C[C@@H](Oc2ccc(OC)c3ccc(Cl)cc23)CN1C(=O)[C@@H](Nc1nc(-c2ccc(C(F)(F)F)cc2F)cs1)C(C)(C)C)C(=O)NS(=O)(=O)C1CC1 [Example 73] | 7.70 to 9.00 |
| C=C[C@@H]1C[C@]1(NC(=O)[C@@H]1C[C@@H](Oc2ncc(OC)c3ccc(Cl)cc23)CN1C(=O)[C@@H](Nc1nc(-c2ccc(C(F)(F)F)c(F)c2)cs1)C(C)(C)C)C(=O)NS(=O)(=O)C1CC1 [Example 75] | 7.70 to 9.00 |
| C=C[C@@H]1C[C@]1(NC(=O)[C@@H]1C[C@@H](Oc2ncc(OC)c3ccc(Cl)cc23)CN1C(=O)[C@@H](Nc1nc(-c2cc(Cl)ccc2Cl)cs1)C(C)(C)C)C(=O)NS(=O)(=O)C1CC1 [Example 76] | 7.70 to 9.00 |
| C=C[C@@H]1C[C@]1(NC(=O)[C@@H]1C[C@@H](Oc2ncc(OC)c3ccc(Cl)cc23)CN1C(=O)[C@@H](Nc1nc(-c2ccc(OC)c(OC)c2)cs1)C(C)(C)C)C(=O)NS(=O)(=O)C1CC1 [Example 77] | 7.70 to 9.00 |
| C=C[C@@H]1C[C@]1(NC(=O)[C@@H]1C[C@@H](Oc2ncc(OC)c3ccc(Cl)cc23)CN1C(=O)[C@@H](Nc1nc(-c2cc(C)ccc2OC(F)F)cs1)C(C)(C)C)C(=O)NS(=O)(=O)C1CC1 [Example 78] | 7.70 to 9.00 |
| C=C[C@@H]1C[C@]1(NC(=O)[C@@H]1C[C@@H](Oc2ncc(OC)c3ccc(Cl)cc23)CN1C(=O)[C@@H](Nc1nc(-c2cc(F)c(F)c(F)c2)cs1)C(C)(C)C)C(=O)NS(=O)(=O)C1CC1 [Example 79] | 7.70 to 9.00 |
| C=C[C@@H]1C[C@]1(NC(=O)[C@@H]1C[C@@H](Oc2ncc(OC)c3ccc(Cl)cc23)CN1C(=O)[C@@H](Nc1nc(-c2cccc(F)c2F)cs1)C(C)(C)C)C(=O)NS(=O)(=O)C1CC1 [Example 80] | 7.70 to 9.00 |
| C=C[C@@H]1C[C@]1(NC(=O)[C@@H]1C[C@@H](Oc2ncc(OC)c3ccc(Cl)cc23)CN1C(=O)[C@@H](Nc1nc(-c2cc(F)c(F)cc2F)cs1)C(C)(C)C)C(=O)NS(=O)(=O)C1CC1 [Example 81] | 7.70 to 9.00 |
| C=C[C@@H]1C[C@]1(NC(=O)[C@@H]1C[C@@H](Oc2ncc(OC)c3ccc(Cl)cc23)CN1C(=O)[C@@H](Nc1nc(-c2ccc(F)cc2F)c(C)s1)C(C)(C)C)C(=O)NS(=O)(=O)C1CC1 [Example 82] | 7.70 to 9.00 |
| C=C[C@@H]1C[C@]1(NC(=O)[C@@H]1C[C@@H](Oc2ncc(OC)c3ccc(Cl)cc23)CN1C(=O)[C@@H](Nc1nc(-c2c(F)cccc2F)cs1)C(C)(C)C)C(=O)NS(=O)(=O)C1CC1 [Example 83] | 7.70 to 9.00 |
| C=C[C@@H]1C[C@]1(NC(=O)[C@@H]1C[C@@H](Oc2ncc(OC)c3ccc(Cl)cc23)CN1C(=O)[C@@H](Nc1nc(-c2sc3ccccc3c2C)cs1)C(C)(C)C)C(=O)NS(=O)(=O)C1CC1 [Example 84] | 7.70 to 9.00 |
| C=C[C@@H]1C[C@]1(NC(=O)[C@@H]1C[C@@H](Oc2ncc(OC)c3ccc(Cl)cc23)CN1C(=O)[C@@H](Nc1nc(-c2cc3ccccc3o2)cs1)C(C)(C)C)C(=O)NS(=O)(=O)C1CC1 [Example 87] | 7.70 to 9.00 |
| C=C[C@@H]1C[C@]1(NC(=O)[C@@H]1C[C@@H](Oc2ncc(OC)c3ccc(Cl)cc23)CN1C(=O)[C@@H](Nc1nc(-c2cc(-c3ccc(Cl)cc3)no2)cs1)C(C)(C)C)C(=O)NS(=O)(=O)C1CC1 [Example 88] | 7.70 to 9.00 |

Same assay, conditions: read-out: IC50 Range; HCV NS3/4A enzyme assay; numeric values

| SMILES | pIC50 |
| --- | --- |
| C=C[C@@H]1C[C@]1(NC(=O)[C@@H]1C[C@@H](Oc2ncc(OC)c3ccc(Cl)cc23)CN1C(=O)C(Nc1ccc(-c2ccccc2)c(OC)c1)C(C)(C)C)C(=O)NS(=O)(=O)C1CC1 (single isomer, unassigned) [Example 18B] | 5.60 |
| C=C[C@@H]1C[C@]1(NC(=O)[C@@H]1C[C@@H](Oc2ncc(OC)c3ccc(Cl)cc23)CN1C(=O)[C@@H](Nc1nc(-c2ccc(C(F)(F)F)cc2C(F)(F)F)cs1)C(C)(C)C)C(=O)NS(=O)(=O)C1CC1 [Example 70] | 7.05 |
| C=C[C@@H]1C[C@]1(NC(=O)[C@@H]1C[C@@H](Oc2ccc(OC)c3ccc(Cl)cc23)CN1C(=O)[C@@H](Nc1nc(-c2ccc(F)c(C(F)(F)F)c2)cs1)C(C)(C)C)C(=O)NS(=O)(=O)C1CC1 [Example 74] | 8.70 |
| C=C[C@@H]1C[C@]1(NC(=O)[C@@H]1C[C@@H](Oc2ncc(OC)c3ccc(Cl)cc23)CN1C(=O)[C@@H](Nc1nc(-c2cc(-c3ccc(Cl)cc3Cl)no2)cs1)C(C)(C)C)C(=O)NS(=O)(=O)C1CC1 [Example 86] | 8.70 |

— patent US8163921B2, “Hepatitis C virus inhibitors” (Bristol-Myers Squibb Company, priority 2008, dated 2012)
